Values quoted from earlier work, collected in US6576223B2, “Insect repellent” (Karl Engelhard Fabrik Pharm Praparate GmbH & Co. KG., priority 1997, dated 2003).

Experiments:
[1] = tested on: insects
[2] = concentrations of DEET exceeding 30%; monograph Diethyltoluamid, Bundesanzeiger No. 137

Molecule	period of effectiveness ([1]; DEET as alcohol solution applied to the skin, known agents)	side effects [2]	repellent effect of the adjuvant itself ([1]; adjuvant alone, EP 0 090 288)
CCN(CC)C(=O)c1cccc(C)c1 [DEET, N,N-diethyl-m-toluamide]	about 5 hours	blistering, ulceration, and necroses can occur	–
polyethylene glycol 400 [PEG-400]	–	–	no repellent effect
